Reference: ChEMBL document CHEMBL2007661, “Compounds: GSK PKIS; Assays: UNC Frye lab” (2012)
“And” between values parts separate entries of the source, which are not always exact repeats. Identical values can stand only once.

Assays:
[1] = target: T1, Inhibitor of nuclear factor kappa-B kinase subunit epsilon (Homo sapiens) (UniProt Q14164); settings: at 1 µM
T1 sequence (whole entry): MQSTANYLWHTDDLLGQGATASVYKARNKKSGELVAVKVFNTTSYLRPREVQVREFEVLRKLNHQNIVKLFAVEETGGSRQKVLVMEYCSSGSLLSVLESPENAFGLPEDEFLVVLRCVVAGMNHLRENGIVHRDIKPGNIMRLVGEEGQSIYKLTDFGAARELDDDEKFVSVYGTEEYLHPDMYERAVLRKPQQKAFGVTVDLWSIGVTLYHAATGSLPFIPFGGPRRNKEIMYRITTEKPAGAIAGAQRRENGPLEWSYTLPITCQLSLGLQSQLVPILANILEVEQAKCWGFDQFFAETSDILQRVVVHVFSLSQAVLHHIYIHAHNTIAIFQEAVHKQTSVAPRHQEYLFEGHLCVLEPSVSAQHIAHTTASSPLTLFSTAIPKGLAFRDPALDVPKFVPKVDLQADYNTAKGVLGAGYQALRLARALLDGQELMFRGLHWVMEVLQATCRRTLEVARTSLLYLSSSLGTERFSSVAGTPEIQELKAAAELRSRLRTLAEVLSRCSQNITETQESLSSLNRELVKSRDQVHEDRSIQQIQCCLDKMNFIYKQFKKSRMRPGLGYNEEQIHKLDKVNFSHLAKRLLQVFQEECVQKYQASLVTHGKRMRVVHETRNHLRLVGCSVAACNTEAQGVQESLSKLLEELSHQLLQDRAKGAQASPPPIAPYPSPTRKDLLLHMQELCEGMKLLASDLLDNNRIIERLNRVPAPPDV

[2] = target: T2, Tyrosine-protein kinase Mer (Homo sapiens) (UniProt Q12866); settings: at 10 µM
T2 sequence (whole entry): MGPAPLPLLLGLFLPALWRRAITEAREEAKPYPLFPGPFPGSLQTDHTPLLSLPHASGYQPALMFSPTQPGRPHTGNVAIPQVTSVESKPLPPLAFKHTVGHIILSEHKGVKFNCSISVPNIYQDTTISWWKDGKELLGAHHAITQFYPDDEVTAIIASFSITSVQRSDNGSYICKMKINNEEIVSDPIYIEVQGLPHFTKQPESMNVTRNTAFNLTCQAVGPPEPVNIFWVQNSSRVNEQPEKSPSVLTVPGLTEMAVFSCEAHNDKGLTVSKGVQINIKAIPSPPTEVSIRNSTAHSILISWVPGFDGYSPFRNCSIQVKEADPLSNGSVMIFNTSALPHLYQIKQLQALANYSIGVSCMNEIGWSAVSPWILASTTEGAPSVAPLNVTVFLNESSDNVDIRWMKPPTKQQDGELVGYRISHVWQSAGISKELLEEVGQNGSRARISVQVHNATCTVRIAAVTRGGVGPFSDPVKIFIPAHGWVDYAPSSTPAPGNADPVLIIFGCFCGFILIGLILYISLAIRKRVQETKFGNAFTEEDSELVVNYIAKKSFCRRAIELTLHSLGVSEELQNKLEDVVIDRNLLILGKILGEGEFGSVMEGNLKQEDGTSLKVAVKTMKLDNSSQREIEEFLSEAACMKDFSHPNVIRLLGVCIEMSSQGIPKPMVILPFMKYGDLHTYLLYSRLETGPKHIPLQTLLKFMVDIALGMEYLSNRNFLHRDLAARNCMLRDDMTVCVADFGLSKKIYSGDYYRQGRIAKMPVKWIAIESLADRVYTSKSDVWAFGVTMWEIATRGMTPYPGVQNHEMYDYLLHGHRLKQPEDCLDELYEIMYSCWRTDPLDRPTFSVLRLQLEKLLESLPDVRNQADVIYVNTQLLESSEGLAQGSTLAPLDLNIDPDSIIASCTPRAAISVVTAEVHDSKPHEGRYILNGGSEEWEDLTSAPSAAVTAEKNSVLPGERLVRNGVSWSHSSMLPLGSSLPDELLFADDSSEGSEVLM

[3] = target: T3, Inhibitor of nuclear factor kappa-B kinase subunit alpha (Homo sapiens) (UniProt O15111); settings: at 1 µM
T3 sequence (whole entry): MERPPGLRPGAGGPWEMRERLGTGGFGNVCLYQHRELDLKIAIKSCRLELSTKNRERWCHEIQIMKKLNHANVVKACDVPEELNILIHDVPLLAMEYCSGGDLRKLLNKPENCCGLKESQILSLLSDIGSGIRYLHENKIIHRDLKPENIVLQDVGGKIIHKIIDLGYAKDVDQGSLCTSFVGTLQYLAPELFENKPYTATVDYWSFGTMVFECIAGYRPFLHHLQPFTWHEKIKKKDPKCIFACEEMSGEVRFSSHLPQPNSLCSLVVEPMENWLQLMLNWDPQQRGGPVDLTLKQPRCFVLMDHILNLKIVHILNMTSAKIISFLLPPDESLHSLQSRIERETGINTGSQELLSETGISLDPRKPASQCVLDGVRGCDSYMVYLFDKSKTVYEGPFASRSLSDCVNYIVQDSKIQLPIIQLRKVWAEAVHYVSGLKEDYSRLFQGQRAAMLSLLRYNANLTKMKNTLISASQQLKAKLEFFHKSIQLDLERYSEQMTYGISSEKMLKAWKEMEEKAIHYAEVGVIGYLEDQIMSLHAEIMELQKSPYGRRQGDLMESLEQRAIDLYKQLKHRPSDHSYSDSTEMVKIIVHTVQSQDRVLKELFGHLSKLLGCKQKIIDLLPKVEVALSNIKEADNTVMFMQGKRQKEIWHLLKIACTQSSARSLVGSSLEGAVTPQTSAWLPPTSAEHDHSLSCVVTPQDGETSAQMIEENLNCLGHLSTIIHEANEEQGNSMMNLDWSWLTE

[4] = target: T4, Serine/threonine-protein kinase TBK1 (Homo sapiens) (UniProt Q9UHD2); settings: at 1 µM
T4 sequence (whole entry): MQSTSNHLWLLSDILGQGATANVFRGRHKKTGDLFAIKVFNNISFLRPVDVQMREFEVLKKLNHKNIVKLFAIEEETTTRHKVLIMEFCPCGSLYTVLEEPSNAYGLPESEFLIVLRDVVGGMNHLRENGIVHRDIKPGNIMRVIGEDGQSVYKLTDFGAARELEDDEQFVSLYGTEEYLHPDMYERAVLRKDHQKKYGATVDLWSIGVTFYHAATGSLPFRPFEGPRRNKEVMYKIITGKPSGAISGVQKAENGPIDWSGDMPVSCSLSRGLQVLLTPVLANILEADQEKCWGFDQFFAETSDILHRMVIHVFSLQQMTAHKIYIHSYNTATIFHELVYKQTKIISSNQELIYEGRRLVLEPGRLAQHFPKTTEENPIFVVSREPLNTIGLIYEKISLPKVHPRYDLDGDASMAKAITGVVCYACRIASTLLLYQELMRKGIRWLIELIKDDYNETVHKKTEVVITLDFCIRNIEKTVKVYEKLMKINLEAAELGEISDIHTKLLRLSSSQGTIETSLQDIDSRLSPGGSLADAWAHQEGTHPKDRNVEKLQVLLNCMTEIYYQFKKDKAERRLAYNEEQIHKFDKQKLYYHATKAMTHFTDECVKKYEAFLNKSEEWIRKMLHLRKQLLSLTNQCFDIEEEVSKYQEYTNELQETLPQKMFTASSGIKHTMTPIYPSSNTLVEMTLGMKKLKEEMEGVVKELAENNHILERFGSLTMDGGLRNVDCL

[5] = target: T5, Inhibitor of nuclear factor kappa-B kinase subunit beta (Homo sapiens) (UniProt O14920); settings: at 1 µM
T5 sequence (whole entry): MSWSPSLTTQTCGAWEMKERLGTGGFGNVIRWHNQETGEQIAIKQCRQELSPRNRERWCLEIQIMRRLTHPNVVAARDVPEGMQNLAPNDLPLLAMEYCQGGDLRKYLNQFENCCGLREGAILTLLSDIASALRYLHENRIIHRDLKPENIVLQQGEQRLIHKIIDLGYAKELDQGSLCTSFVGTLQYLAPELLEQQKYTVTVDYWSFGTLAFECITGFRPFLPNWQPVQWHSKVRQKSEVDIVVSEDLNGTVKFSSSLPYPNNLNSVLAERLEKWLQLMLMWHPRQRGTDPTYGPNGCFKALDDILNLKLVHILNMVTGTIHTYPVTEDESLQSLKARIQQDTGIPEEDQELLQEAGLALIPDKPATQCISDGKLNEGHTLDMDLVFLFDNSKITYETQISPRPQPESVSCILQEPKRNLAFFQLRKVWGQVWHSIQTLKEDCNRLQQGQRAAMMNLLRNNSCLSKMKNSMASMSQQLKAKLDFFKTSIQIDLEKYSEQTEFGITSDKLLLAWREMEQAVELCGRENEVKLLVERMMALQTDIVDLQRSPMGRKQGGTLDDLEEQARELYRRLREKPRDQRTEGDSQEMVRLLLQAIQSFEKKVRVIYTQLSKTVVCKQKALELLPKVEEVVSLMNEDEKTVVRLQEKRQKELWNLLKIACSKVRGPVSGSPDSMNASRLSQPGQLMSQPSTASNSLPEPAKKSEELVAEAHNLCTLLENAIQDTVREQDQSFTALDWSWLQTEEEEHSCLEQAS

Row | SMILES | inhibition [1] | inhibition [2] [%] | inhibition [3] | inhibition [4] | inhibition [5]
1 | CC(C)c1ccc2c(c1)NC(=O)/C2=N/Nc1ccc(S(N)(=O)=O)cc1 | 0% | -10 | 5% and 4% | -5% and -1% | 
2 | NC(=O)c1cc(-c2ccncc2)cc(-c2ccccc2)c1N | 14% | -1 |  | 10% and 13% | -1% and 0%
3 | NS(=O)(=O)c1ccc(N/C=C2\C(=O)Nc3ccc4ncsc4c32)cc1 | -8% and -9% |  | -3% and -2% | 85% and 86% | -4% and -5%
4 | Fc1cccc(COc2ccc(Nc3ncnc4cc(-c5ccc[nH]5)sc34)cc2Cl)c1 | -1% |  | 60% and 64% | 0% and -4% | 3% and 2%
5 | Nc1ncnc2occ(-c3ccc(NC(=O)Nc4cc(C(F)(F)F)ccc4F)cc3)c12 | 12% [middle of 4 runs] |  | 2% [middle of 4 runs] | -1% (2×) and 2% and 1% | -7% and -4%
6 | C[C@@H](Oc1cc(-n2cnc3ccc(OCC4CCN(C)CC4)cc32)sc1C(N)=O)c1ccccc1Cl | 3% | 55 | -10% and 3% | 6% and 8% | 
7 | NC(=O)c1cc(-c2ccc(F)cc2)cc(-c2ccncc2)c1N | 2% and 0% | 22 |  | 16% and 21% | 2% and 1%
8 | [O-][S+]1CCN(Cc2ccc(-c3ccc4ncnc(Nc5ccc(OCc6ccccc6)c(F)c5)c4c3)o2)CC1 | 1% |  | 5% | 5% and 2% | -4% and -10%
9 | N#Cc1cccc(Nc2nccc(-c3cnn4ncccc34)n2)c1 | 35% and 37% |  | -9% | 37% and 39% | -4% and 0%
10 | C[C@@H](Oc1cc(-n2cnc3ccc(OC4CCN(C)CC4)cc32)sc1C(N)=O)c1ccccc1Cl | 1% and 5% | -2 |  | 7% and 3% | -1% and -2%
11 | COc1cccc(Nc2nccc(-c3cnn4ncccc34)n2)c1 | 11% and 20% | 98 | 0% and 2% | 24% and 31% | 
12 | c1cc(-c2cnn3nc(N4CCOCC4)ccc23)nc(NC2CC2)n1 | 5% and 6% | -4 | -2% and -3% | 5% and 6% | 
13 | CNC(=O)c1cncc(/C=C/c2c(Cl)cccc2Cl)c1 | 0% and 1% | 3 |  | 0% and -1% | -3% and -2%
14 | Fc1ccc(-c2nn3ncccc3c2-c2ccnc(Nc3ccc4c(c3)OCCO4)n2)cc1 | 12% and 9% |  |  | 4% and -2% | -2% and -4%
15 | Clc1ccc(-c2nn3ncccc3c2-c2ccnc(Nc3ccccc3)n2)cc1 | 0% and 1% | -9 | 50% | -2% and -3% | 
16 | Cc1ccc(NC(=O)CC2CC2)cc1-c1ccc(C(=O)NCC2CC2)cc1 | 0% |  | 1% and 0% | -1% and 1% | -2% and -1%
17 | CCS(=O)(=O)c1ccc(OC)c(Nc2ncc(-c3cccc(C(C)=O)c3)o2)c1 | 1% | 65 | -1% | 7% and 5% | 
18 | COC(=O)Nc1nc2ccc(Oc3ccc(NC(=O)Nc4cc(C(F)(F)F)ccc4F)cc3)cc2s1 | -4% and -6% |  | 5% and 4% | -5% and -3% | -4% and -8%
19 | O=C(Nc1n[nH]c2nc(-c3ccco3)ccc12)C1CC1 | 0% |  | 7% and 6% | 4% and 3% | -6%
20 | CCS(=O)(=O)c1ccc(OC)c(Nc2ncc(-c3cccc(F)c3)o2)c1 | 0% and 2% | 73 | 2% and 17% | 8% and 7% | 
21 | Nc1nccc(-c2c(-c3ccc(F)cc3)ncn2C2CCNCC2)n1 | 1% [middle of 4 runs] |  | 4% (2×) and 5% and 3% | 0% [middle of 4 runs] | -4% and -5%
